Data: ChEMBL document CHEMBL3407358, “Boehmeriasin A as new lead compound for the inhibition of topoisomerases and SIRT2” (Eur J Med Chem, 2015)
Active and inactive are the calls of the source. No cut-off for these calls is given here.

How the values were obtained:
[1] = target: T1, DNA topoisomerase 1 (Homo sapiens) (UniProt P11387); assay: Stabilization of recombinant human topoisomerase 1-pBR322 DNA cleavage complex assessed as linear DNA formation at 0.5 uM after 60 mins by agarose gel electrophoresis
T1 sequence (whole entry): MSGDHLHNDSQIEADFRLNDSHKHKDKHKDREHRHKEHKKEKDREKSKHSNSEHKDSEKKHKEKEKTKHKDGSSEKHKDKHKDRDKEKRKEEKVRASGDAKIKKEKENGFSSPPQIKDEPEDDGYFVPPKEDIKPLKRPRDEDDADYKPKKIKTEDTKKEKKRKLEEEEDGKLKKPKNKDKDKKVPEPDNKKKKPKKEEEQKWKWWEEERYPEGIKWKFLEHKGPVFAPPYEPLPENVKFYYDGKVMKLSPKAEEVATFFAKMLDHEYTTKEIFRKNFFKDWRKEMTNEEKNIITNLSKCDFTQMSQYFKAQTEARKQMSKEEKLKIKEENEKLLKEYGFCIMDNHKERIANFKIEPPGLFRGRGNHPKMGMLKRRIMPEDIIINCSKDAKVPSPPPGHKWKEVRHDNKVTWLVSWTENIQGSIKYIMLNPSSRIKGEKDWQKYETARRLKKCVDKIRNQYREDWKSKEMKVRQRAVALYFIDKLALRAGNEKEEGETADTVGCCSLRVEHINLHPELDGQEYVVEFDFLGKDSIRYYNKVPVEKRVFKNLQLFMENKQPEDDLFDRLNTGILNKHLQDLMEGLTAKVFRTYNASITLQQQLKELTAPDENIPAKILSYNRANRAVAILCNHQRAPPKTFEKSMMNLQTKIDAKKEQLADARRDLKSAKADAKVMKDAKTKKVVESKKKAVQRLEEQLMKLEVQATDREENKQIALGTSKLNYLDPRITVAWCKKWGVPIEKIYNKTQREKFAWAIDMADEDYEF

L1210 = assay: Antiproliferative activity against mouse L1210 cells after 48 hrs by Coulter counter method; type: functional, cell-based; conditions: L1210, 48 h
CCRF-CEM = assay: Antiproliferative activity against human CEM cells after 96 hrs by Coulter counter method; type: functional, cell-based
[2] = Antiproliferative activity against human HMEC1 cells after 4 days by Coulter counter method; type: functional, cell-based; conditions: HMEC-1, 96 h
HeLa = assay: Antiproliferative activity against human HeLa cells after 4 days by Coulter counter method; type: functional, cell-based; conditions: 96 h
[3] = Antiproliferative activity against bovine BAEC cells after 3 days by Coulter counter method; type: functional, cell-based; conditions: Bos taurus, 72 h
[4] = target: T2, NAD-dependent protein deacetylase sirtuin-2 (Homo sapiens) (UniProt Q8IXJ6); assay: Inhibition of SIRT2 (unknown origin) using KI179 as substrate preincubated at 200 uM for 5 mins before substrate addition measured after 1 hr by Fluor de Lys fluorescence assay
T2 sequence (whole entry): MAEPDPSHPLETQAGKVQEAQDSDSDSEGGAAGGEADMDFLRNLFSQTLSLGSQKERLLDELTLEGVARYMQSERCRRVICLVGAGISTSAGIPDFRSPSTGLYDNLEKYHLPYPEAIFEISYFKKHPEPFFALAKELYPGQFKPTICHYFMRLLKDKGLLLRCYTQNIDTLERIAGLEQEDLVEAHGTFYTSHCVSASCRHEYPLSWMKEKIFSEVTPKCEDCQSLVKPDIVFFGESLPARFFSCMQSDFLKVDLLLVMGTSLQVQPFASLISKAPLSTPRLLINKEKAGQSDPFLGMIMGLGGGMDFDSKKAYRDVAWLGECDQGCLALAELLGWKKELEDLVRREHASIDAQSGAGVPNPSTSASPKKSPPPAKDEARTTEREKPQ

[5] = target: T1, DNA topoisomerase 1 (Homo sapiens); assay: Inhibition of recombinant human topoisomerase 1-mediated relaxation of supercoiled pBR322 DNA at 10 uM after 60 mins by agarose gel electrophoresis
[6] = target: DNA topoisomerase 2-alpha (Homo sapiens) (UniProt P11388); assay: Inhibition of recombinant human topoisomerase 2-mediated relaxation of supercoiled pBR322 DNA at 50 uM after 60 mins by agarose gel electrophoresis
[7] = target: DNA topoisomerase 2-alpha (Homo sapiens) (UniProt P11388); assay: Stabilization of recombinant human topoisomerase 2-pBR322 DNA cleavage complex assessed as linear DNA formation at 100 uM after 60 mins by agarose gel electrophoresis
[8] = target: DNA topoisomerase 2-alpha (Homo sapiens) (UniProt P11388); assay: Inhibition of recombinant human topoisomerase 2-mediated relaxation of supercoiled pBR322 DNA after 60 mins by agarose gel electrophoresis
[9] = target: T3, NAD-dependent protein deacetylase sirtuin-1 (Homo sapiens) (UniProt Q96EB6); assay: Inhibition of SIRT1 (unknown origin) using KI177 as substrate preincubated at 200 uM for 5 mins before substrate addition measured after 1 hr by Fluor de Lys fluorescence assay
T3 sequence (whole entry): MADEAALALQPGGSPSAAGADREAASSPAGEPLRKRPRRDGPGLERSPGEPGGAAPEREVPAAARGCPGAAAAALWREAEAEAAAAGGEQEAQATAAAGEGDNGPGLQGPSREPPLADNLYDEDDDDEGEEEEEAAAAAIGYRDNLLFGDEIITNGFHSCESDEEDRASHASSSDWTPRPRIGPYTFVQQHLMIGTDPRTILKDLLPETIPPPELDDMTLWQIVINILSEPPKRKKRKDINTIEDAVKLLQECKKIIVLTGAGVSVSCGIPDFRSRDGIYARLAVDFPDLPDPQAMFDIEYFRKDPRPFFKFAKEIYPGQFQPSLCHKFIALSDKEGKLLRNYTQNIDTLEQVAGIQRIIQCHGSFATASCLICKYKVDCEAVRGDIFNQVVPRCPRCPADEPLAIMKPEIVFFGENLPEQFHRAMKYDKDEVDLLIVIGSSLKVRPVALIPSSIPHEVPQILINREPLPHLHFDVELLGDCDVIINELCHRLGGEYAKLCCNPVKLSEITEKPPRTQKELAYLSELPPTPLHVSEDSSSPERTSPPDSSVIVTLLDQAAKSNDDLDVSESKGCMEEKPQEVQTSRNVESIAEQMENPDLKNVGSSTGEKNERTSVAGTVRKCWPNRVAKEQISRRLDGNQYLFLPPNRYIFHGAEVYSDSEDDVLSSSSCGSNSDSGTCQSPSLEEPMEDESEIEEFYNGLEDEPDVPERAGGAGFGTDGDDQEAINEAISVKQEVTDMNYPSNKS

[10] = target: DNA topoisomerase 2-alpha (Homo sapiens) (UniProt P11388); assay: Inhibition of recombinant human topoisomerase 2-mediated relaxation of supercoiled pBR322 DNA at 10 uM after 60 mins by agarose gel electrophoresis
[11] = target: DNA topoisomerase 2-alpha (Homo sapiens) (UniProt P11388); assay: Stabilization of recombinant human topoisomerase 2-pBR322 DNA cleavage complex assessed as linear DNA formation at 10 uM after 60 mins by agarose gel electrophoresis

DNA topoisomerase 2-alpha (Homo sapiens), sequence (P11388 whole entry): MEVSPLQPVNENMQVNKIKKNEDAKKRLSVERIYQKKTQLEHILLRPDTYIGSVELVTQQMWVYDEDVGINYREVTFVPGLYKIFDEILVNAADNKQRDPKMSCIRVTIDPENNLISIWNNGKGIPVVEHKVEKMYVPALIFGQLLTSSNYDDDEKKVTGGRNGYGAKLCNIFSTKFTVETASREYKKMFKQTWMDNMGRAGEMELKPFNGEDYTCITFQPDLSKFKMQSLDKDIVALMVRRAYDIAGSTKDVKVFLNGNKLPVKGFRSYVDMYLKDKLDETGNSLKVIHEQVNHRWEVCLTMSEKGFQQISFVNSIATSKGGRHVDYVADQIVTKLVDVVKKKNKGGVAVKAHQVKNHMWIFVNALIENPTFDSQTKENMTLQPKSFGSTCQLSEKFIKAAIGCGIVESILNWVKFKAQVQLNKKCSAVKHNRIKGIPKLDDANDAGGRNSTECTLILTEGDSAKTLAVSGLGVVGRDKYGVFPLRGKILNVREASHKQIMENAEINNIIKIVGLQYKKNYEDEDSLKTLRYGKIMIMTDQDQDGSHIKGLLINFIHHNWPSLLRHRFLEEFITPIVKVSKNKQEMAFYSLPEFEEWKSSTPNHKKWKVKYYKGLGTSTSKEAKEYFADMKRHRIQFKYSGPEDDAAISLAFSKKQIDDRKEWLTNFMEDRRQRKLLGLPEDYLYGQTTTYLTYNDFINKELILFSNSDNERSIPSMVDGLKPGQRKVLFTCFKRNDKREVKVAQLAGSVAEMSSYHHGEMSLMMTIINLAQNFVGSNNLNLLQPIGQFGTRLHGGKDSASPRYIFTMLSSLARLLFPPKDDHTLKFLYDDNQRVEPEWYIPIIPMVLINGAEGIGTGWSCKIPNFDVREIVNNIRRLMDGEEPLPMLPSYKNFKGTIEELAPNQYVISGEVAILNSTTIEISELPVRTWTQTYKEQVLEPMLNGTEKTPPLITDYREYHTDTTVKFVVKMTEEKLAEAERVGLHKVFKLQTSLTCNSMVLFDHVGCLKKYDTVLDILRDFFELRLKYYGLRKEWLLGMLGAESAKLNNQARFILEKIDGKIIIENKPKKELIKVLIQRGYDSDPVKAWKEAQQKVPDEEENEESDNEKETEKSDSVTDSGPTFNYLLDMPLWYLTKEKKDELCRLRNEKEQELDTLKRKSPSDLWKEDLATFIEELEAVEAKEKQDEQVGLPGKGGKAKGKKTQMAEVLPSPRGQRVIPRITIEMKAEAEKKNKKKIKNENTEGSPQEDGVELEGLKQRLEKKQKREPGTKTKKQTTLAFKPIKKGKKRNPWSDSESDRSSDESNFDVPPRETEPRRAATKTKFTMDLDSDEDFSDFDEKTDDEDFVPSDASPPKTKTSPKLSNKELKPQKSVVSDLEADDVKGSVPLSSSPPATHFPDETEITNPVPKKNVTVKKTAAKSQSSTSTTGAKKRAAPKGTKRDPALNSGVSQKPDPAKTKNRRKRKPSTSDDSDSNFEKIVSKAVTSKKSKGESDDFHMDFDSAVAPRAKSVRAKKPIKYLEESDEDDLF

SMILES | Activity [1] | IC50 (L1210) [nM] | IC50 (CCRF-CEM) [nM] | IC50 [2] [nM] | IC50 (HeLa) [nM] | IC50 [3] [nM] | inhibition [4] [%] | inhibition [5] | inhibition [6] | Activity [7] | inhibition [8] | inhibition [9] [%] | inhibition [10] | Activity [11]
CC[C@@]1(O)C(=O)OCc2c1cc1n(c2=O)Cc2cc3ccccc3nc2-1 | Active |  |  |  |  |  |  |  |  |  |  |  |  | 
COc1ccc(/C=C\c2cc(OC)c(OC)c(OC)c2)cc1OP(=O)(O)O [FOSBRETABULIN DISODIUM] |  | 82 | 95 | 2.9 | 79 | 3.9 |  |  |  |  |  |  |  | 
COc1ccc2c3c(c4cc(OC)c(OC)cc4c2c1)CN1CCCC[C@H]1C3 | inactive | 111 | 201 | 82 | 182 | 23 | 41 | Active | Active | inactive | Dose-dependent effect | 10 | inactive | 
COc1ccc2c3c(c4cc(OC)c(OC)cc4c2c1)CN1CCCC[C@@H]1C3 | inactive | 19 | 185 | 7.4 | 66 | 23 | 65 | Active | Active | inactive | Dose-dependent effect | 12 | inactive | 
COc1ccc2c3c(c4cc(OC)c(OC)cc4c2c1)CN1CCCCC1C3 (racemic) |  | 71 | 119 | 29 | 76 | 9 |  |  |  |  |  |  |  | 
COc1cc(NS(C)(=O)=O)ccc1Nc1c2ccccc2nc2ccccc12 |  |  |  |  |  |  |  |  |  |  |  |  |  | Active
